Cytotoxicity data for 99 compounds are collected here from ChEMBL document CHEMBL3507680, “University of Dundee, Gates Library screen for HepG2 cell viability”.

A short description of the series: Human HepG2 cell viability assay in 384 well format. The format is toxicity, cell-based. Further details: dose 125 nL, time 70.5 hour; concentration not given beside the values. The following applies: HepG2 cells, read-out: Inhibition.
`Cc1ccc(N2CCC(CCN3CCCC3=O)CC2)nn1`: the cytotoxicity at 70.5 h is -22%. In the case of `COc1ccc(NC(=O)Cn2nc(C)c(C)cc2=O)cc1` it was 1.99%; in that of `CC(c1nc(C2CC2)no1)N1CCN(Cc2nnc(C3CC3)o2)CC1` (centres undefined), -2.67%. In the case of `Cc1ccc(C(=O)NCCC(C)C)cc1NS(C)(=O)=O` it was -10%; in that of `Cc1ncsc1CN1C[C@@H]2COC[C@]2(COc2ccc(C#N)cn2)C1`, -4.4%. As to `CCOCC1CC2(CCN(Cc3ccccn3)CC2)CO1` (centres undefined), the cytotoxicity at 70.5 h is -3.81%. In the case of `O=C(NCCCn1ccccc1=O)c1cnc(-c2ccsc2)s1` it was -11.3%. The same measure for `COCC(=O)N1CCC(c2cc(C(F)(F)F)c3c(C)noc3n2)CC1`: 12.4%; for `Cc1nnc(CN(C)C2CCN(Cc3nc4ccccc4n3C)C2)o1` (centres undefined): -1.55%; for `O=c1c(CN2CC3CCCN3C[C@@H]2CCO)coc2ccc(Cl)cc12` (some centres undefined): -6.6%. The same measure for `CCN(CC1CN(Cc2cccnc2)CCO1)c1cccnn1` (centres undefined): -0.418%. Consider `CCO[C@H]1C[C@@H](O)C12CCN(C(=O)CN1CCCCCC1=O)CC2`, for which the cytotoxicity at 70.5 h is 6.65%.

With `COc1c(CNCC(O)c2ccc(C)cc2)c(C(C)C)nn1C` (centres undefined), the cytotoxicity at 70.5 h is -3.08%.

For the compound `Cc1cnn(CCCNC(=O)N2CCCCC(N3CCCC3)C2)c1` (centres undefined), the cytotoxicity at 70.5 h is -6.01%. The same measure for `COCCOc1ccc(NC(=O)N2CCOC(C(N)=O)C2)cc1F` (centres undefined): 25.8%; for `CN(C)Cc1cnc(C2CCN(C(=O)c3ccc(F)cc3)C2)[nH]1` (centres undefined): -6.91%. The same measure for `CC(C)c1nnc(NC(=O)c2cccc(OCC(F)(F)F)n2)[nH]1`: -3.15%; for `CCN1CC(COC(=O)c2ccc(Br)cc2F)CC1=O` (centres undefined): -6.68%; for `CC1(C)CC(CN2CCC3(CCC(=O)N(C4CCC4)C3)CC2)CCO1` (centres undefined): -9.04%. Turning to `Cc1ncnc2c1CCN(C(=O)c1ccsc1)CC2`, the cytotoxicity at 70.5 h was 7.97%. In the case of `CN1CCN(Cc2cn3c(n2)CN(C(=O)c2ccccn2)CC3)CC1` it was -2.89%. `COCC1CC2(CCN(C(=O)c3cccc(C)c3)CC2)CO1` (centres undefined): the cytotoxicity at 70.5 h is -12.6%. In the case of `CN(CCN1CCCC1)c1nccc(N2CCN[C@H]3CS(=O)(=O)C[C@H]32)n1`, the cytotoxicity at 70.5 h came out at 22.4%. The same measure for `Cc1nc2n(n1)CC(NCC(=O)NCCC1=CCCCC1)CC2` (centres undefined): 0.305%; for `COCCN1CCC(CNC(=O)C2(c3cccc(C)c3)CC2)CC1`: -4.42%; for `Cc1ccc(C(=O)N2CCCC(n3cccn3)C2)cc1S(C)(=O)=O` (centres undefined): 0.0611%. The same measure for `COCC(C)(C#N)NC(=O)COc1ccccc1Br` (centres undefined): -0.405%; for `COc1ccccc1-c1noc(CN2CCCC2Cn2cccn2)n1` (centres undefined): 12.5%. As for `Cc1ccc(S(=O)(=O)N2CCC(Oc3cccnn3)CC2)c(C)c1`, the cytotoxicity at 70.5 h was -8.17%. In the case of `Cc1nc(CN2CCO[C@H]3CN(C(=O)Cc4cccs4)C[C@H]32)cs1` it was -3.66%. In the case of `CCOC(=O)C1CCCN(c2ccc(-c3nc(C)no3)cn2)C1` (centres undefined) it was -4.38%; in that of `Cc1cccc(C)c1NC(=O)CN(C)C(C)c1nc(C(C)(C)C)no1` (centres undefined), -88.9%; in that of `COCC(=O)N1CCC2(CC1)CCn1c(-c3cccc(OC)c3)cnc12`, 36.2%. Take `CS(=O)(=O)NCC1CCCN(C(=O)c2cccc(F)c2)C1` (centres undefined): the cytotoxicity at 70.5 h was -6.44%.

For `O=C(CN1CCCCC1Cn1cncn1)NCCC1=CCCCC1` (centres undefined), the cytotoxicity at 70.5 h was 32%.

As to `CCOc1ccc(Br)cc1S(=O)(=O)N(CC)Cc1ccc(N(C)C)cc1`, the cytotoxicity at 70.5 h is -3.07%. As to `Cc1ccc(S(=O)(=O)Cc2nnc(C)n2C)cc1`, the cytotoxicity at 70.5 h is -2.49%. In the case of `CCS(=O)(=O)N1CCc2ncnc(OC)c2CC1` it was -5.9%; in that of `CCCOc1cccc(-c2nc3c([nH]2)CCNC3)c1`, 5.31%. In the case of `NC(=O)C1CN(C(=O)Nc2ccccc2Oc2ccccc2Cl)CCO1` (centres undefined) it was -6.93%; in that of `O=C(Cc1ccncc1)N(CCO)CCSc1ccc(Cl)cc1`, -12.1%. As to `COc1cc(C)ccc1OCc1nc(C(=O)N2CCCO2)co1`, the cytotoxicity at 70.5 h came out at 10.4%. Turning to `CCCc1n[nH]c(C2CN(Cc3nnc(C4CCC4)o3)CCO2)n1` (centres undefined), the cytotoxicity at 70.5 h was -5.35%. The same measure for `COc1ccc(-c2nccnc2C2CCN(C(C)=O)CC2)cc1`: 19.6%. In the case of `c1ccc(CCN2CCOC(CNc3cccnn3)C2)nc1` (centres undefined) it was -12.5%. The same measure for `O=C(NC1CC2(CCN(CCO)CC2)c2ccccc21)c1ccncc1` (centres undefined): -5.59%; for `CC(C)SCc1cccc(NC(=O)NC(C)c2nc[nH]n2)c1` (centres undefined): -7.97%; for `CC(C)c1nccn1C1CCCN(C(=O)c2ccnc(N(C)C)c2)C1` (centres undefined): -2.47%. In the case of `COCCN1C[C@H]2CC[C@@H]1CN(Cc1nc3ccccc3n1C)C2`, the cytotoxicity at 70.5 h is -6.43%. `COCc1cnc2n1CCN(C(=O)c1cc3ccccc3o1)C2C` (centres undefined): the cytotoxicity at 70.5 h was 18.8%. In the case of `CC(Cn1ccnc1)NC(=O)N(C)Cc1ccc2c(c1)OCO2` (centres undefined) it was 1.49%; in that of `O=C(NCCC1CCCO1)c1ccccc1N1CCOCC1` (centres undefined), 1.49%; in that of `CC(CC#N)N(C)Cc1ccc(F)cc1C#N` (centres undefined), 11.9%. In the case of `N#Cc1ccc(N2CCN(c3cnccn3)CC2)cc1C(F)(F)F` it was 24.7%. In the case of `Cc1cccc(-c2ccc(C(=O)NCCN(C)C3CC3)c(=O)[nH]2)c1` it was -34.3%; in that of `O=C(c1cnccn1)N1CCN2C[C@H](OCc3ccccc3)C[C@H]2C1`, -1.37%.

Take `CCN1C(=O)C(c2ccccc2)CC12CCN(Cc1cccnc1)CC2` (centres undefined): the cytotoxicity at 70.5 h is -7.6%. Take `CCSc1ccc(C(=O)N2CCC3(CC2)[C@H](O)C[C@@H]3O)s1`: the cytotoxicity at 70.5 h is -12.1%. The same measure for `CCC1CN(C(=O)c2ccccc2N(C)C)CCN1C(C)C` (centres undefined): 1.87%; for `COCCCn1c(CN2CCCCO2)cnc1S(=O)(=O)C1CCCC1`: -4.4%; for `O=C(C1CCC1)N1CCOc2cccc(F)c21`: -9.1%. In the case of `O=C(c1nnn(-c2ccc(F)cc2)n1)N(CCO)Cc1ccccc1`, the cytotoxicity at 70.5 h is -1.48%. For the compound `O=S(=O)(NC1CCCCC12OCCO2)c1ccc2c(c1)OCCO2` (centres undefined), the cytotoxicity at 70.5 h was -7.16%. The same measure for `CCOCC(=O)N1Cc2nccn2CC(CN(C)C)C1` (centres undefined): 1.2%; for `CCN(CC)CCn1ccnc1-c1cccc(C#N)c1`: -4.77%.

For `O=C(C1CCOCC1)N1CCC(O)(Cn2ccc3ccncc32)CC1`, the cytotoxicity at 70.5 h is -6.06%. The same measure for `CCn1cnnc1C1CCN(C(=O)c2cc3c(s2)CCCC3)CC1`: -9.56%. The same measure for `O=c1c(S(=O)(=O)N2CCCC2)cccn1Cc1c(F)cccc1Cl`: -6.76%; for `N#Cc1ccc(CNC(=O)C2=NN(c3ccccc3)C(=O)CN2)cc1`: -7.68%; for `O=c1ncn(-c2ccccc2F)c2ncccc12`: -5.32%. The same measure for `CCC(C)NC(=O)NCCC(=O)N1CCN(c2ccccn2)CC1` (centres undefined): -0.377%; for `CC(C)c1nc2n(n1)CC(NCc1nc(-c3ccccn3)no1)CC2` (centres undefined): -7.49%. On to `O=C(CN(Cc1ccco1)C1CC1)Nc1ccc(Br)cn1`, for which the cytotoxicity at 70.5 h was -17.6%. In the case of `CC(O)CC(C)(C)CNC(=O)NCc1cccc(-n2cncn2)c1` (centres undefined) it was -7.73%; in that of `Cc1cnc(C(=O)N2CCN3C[C@H](OCc4cccnc4)C[C@H]3C2)cn1`, -9.39%; in that of `CC1CN(S(=O)(=O)c2cc(S(C)(=O)=O)ccc2Br)c2cccnc2O1` (centres undefined), 1.23%. In the case of `c1ccc(CO[C@H]2CC[C@H]3[C@H]2OCCN3CCN2CCCCC2)nc1` it was 20.6%; in that of `CCN1CCN(CCNC(=O)c2sc(C)nc2C)CC1`, -5.81%. As for `Cc1ccc(NC2CCN(C(=O)CN(C)C3CC3)CC2)nn1`, the cytotoxicity at 70.5 h is -1.46%. For `CC(CNS(C)(=O)=O)c1ccc(F)c(F)c1` (centres undefined), the cytotoxicity at 70.5 h was -1.08%. In the case of `CCc1cccc(C)c1NC(=O)NCCCN(CC)S(C)(=O)=O` it was -3.01%. The same measure for `O=C(CCc1cscn1)NS(=O)(=O)c1ccc2c(c1)CCC2`: 8.97%; for `CC(C)NC(=O)[C@@H]1CN(C(=O)C2CC2)C[C@]12Cc1ccccc1C(=O)N2`: -3.78%; for `Cc1ccc(OCc2occc2C(=O)N2CCCCC(N)C2)cc1` (centres undefined): -2.2%.

Regarding `Fc1cnc(N2CCC3(CC2)CC(OCc2cccnc2)CO3)nc1` (centres undefined), the cytotoxicity at 70.5 h was -0.216%. As to `COc1cccc(CNc2cnn(C)c(=O)c2Cl)c1`, the cytotoxicity at 70.5 h was found to be 3.02%.

Take `O=C(NC1CCN(c2ncccn2)CC1)c1cccc(-n2ccnc2)c1`: the cytotoxicity at 70.5 h was -7.96%.

For the compound `CCc1nc(CNCC2CCCN2c2cccnn2)cs1` (centres undefined), the cytotoxicity at 70.5 h was -6.05%. In the case of `Cn1cc(C2CCCN2C(=O)CCCOc2ccc(F)cc2F)cn1` (centres undefined) it was -11.3%; in that of `CCCOc1ccc(C(=O)N2CC[C@H]3CC[C@@H](C2)N3)cc1Cl`, -14.3%; in that of `Cc1cc(N2CCC3(CCC(=O)N(CC4CC4)C3)CC2)nc(N)n1`, -9.89%. The same measure for `Cn1cc(CNC(=O)NCCOc2ccc(F)c(F)c2)cn1`: -0.0625%; for `Cc1nccn1CCC1CCCCN1Cc1ccc(N(C)C)nc1` (centres undefined): -10.4%. Take `CC(Cn1cc(Br)cn1)C(=O)Nc1ccc(Br)cn1` (centres undefined): the cytotoxicity at 70.5 h was 3.47%. `Cc1cc(NC2CC3(CCN(Cc4ncccc4F)C3)C2)ncn1` (centres undefined): the cytotoxicity at 70.5 h was -3.79%. The same measure for `O=C(c1cc(F)cc(F)c1)N1CCC2(CC1)CC2`: -9.31%. In the case of `COc1ccc2cc(C(=O)N3CCCC(n4ccnc4C)C3)[nH]c2c1` (centres undefined) it was 0.0549%; in that of `CN(Cc1cccc(OC(F)(F)F)c1)C(=O)c1cnsn1`, -3.78%; in that of `CN(CC(C)(C)O)C(=O)Nc1ccc(F)c(-n2cccc2)c1`, -9.2%.
